In patent publication US20250312499A1, “KISSPEPTIN RECEPTOR (KISS1R) TARGETED THERAPEUTICS AND USES THEREOF” (priority 2024, published 2025):
Numbered stars: 1 amine (or outer) side, 2 acyl side, 3 side chain; on linkers, the order of the positions; unused ones are H or OH. Square brackets hold non-standard residues; d marks the D form. Peptide text beside a SMILES is read from it. * marks the point of attachment. DOTA = O=C(O)CN1CCN(CC(=O)O)CCN(CC(=O)*)CCN(CC(=O)O)CC1; Ala(9-anthryl) = N[C@@H](Cc1c2ccccc2cc2ccccc12)C(=O)O; Gly(N-(3-F-4-Me-benzyl)) = Cc1ccc(CNCC(=O)*)cc1F; Gly(N-3-F-4-Me-benzyl) = Cc1ccc(CNCC(=O)O)cc1F; Gly(Nα-4-MeO-benzyl) = COc1ccc(CNCC(=O)*)cc1; Api(1-amidino) = N=C(N)N1CCC(N)(C(=O)O)CC1; Bip = N[C@@H](Cc1ccc(-c2ccccc2)cc1)C(=O)O; Hydrocinnamoyl(4-I) = O=C(CCc1ccc(I)cc1)*; Phe(4-CN) = N#Cc1ccc(C[C@H](N)C(=O)O)cc1; 2Nal = N[C@@H](Cc1ccc2ccccc2c1)C(=O)O; d2Nal = N[C@H](Cc1ccc2ccccc2c1)C(=O)O; Trx = NC[C@H]1CC[C@H](C(=O)O)CC1; X1 = O=C(CN1CCC(N[*:1])CC1)[*:2]; 4Pal = N[C@@H](Cc1ccncc1)C(=O)O; X15 = O=C(CNCCc1ccc(I)cc1)*; 4Amb = NCc1ccc(C(=O)O)cc1; Api = NC1(C(=O)O)CCNCC1; PEG2 = NCCOCCOCCC(=O)O; Ahx = NCCCCCC(=O)O; azaGly = NNC(=O)O; βAla = NCCC(=O)O; Sar = CNCC(=O)O

biological target: human kisspeptin receptor (Homo sapiens (Human), UniProt Q969F8); assay: Human KISS1R binding assay (membrane competition binding); details: 90 min at room temperature; competition with 0.2 nM [125I]-metastin (45-54); Flp-In T-Rex 293 kisspeptin membranes; metal complexes nonradioactive Ga, In, Lu; read-out: hKiSSR Binding Ki (90 min)
Sequence (Q969F8 whole entry): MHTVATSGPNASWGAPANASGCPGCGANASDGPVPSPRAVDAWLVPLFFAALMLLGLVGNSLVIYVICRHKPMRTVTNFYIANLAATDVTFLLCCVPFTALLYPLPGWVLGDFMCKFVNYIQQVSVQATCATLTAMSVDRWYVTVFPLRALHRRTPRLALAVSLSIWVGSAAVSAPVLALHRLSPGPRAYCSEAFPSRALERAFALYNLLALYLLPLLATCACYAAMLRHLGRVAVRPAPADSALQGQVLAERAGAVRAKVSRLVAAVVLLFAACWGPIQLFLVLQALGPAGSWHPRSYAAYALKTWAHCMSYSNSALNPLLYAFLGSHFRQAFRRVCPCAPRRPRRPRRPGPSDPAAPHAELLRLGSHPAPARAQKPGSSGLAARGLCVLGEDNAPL
Protocol: Crude membrane fractions are prepared from Flp-In T-Rex 293 (Thermo Fisher) cell line expressing the human kisspeptin receptor. The cells are grown to 85-100% confluence on standard tissue culture dishes in Dulbecco's Modified Eagles Medium (DMEM) (Corning) supplemented with 10% FBS (Gemini), 1% penicillin-streptomycin-glutamine (Gibco), 500 μg/mL hygromycin, and 15 μg/mL blastacidin. 48 hrs prior to preparing membranes 10 μg/ml of tetracycline is added to the culture media to induce receptor expression. To prepare membranes, cells are scraped and collected in 1× Dulbecco's phosphate buffered saline (Corning) and then pelleted at 1000 RPMs. The cell pellet is reconstituted in membrane preparation buffer (20 mM HEPES, 6 mM MgCl2 and 1 mM EGTA, protease inhibitor tablets (Pierce), pH 7.4) and placed in a cell disruption vessel (Parr Instrument company) at 1000 PSI for 30 min on ice. The pressurized contents are then released and spun down at 1000 RPMs and the supernatant is collected and further centrifuged at 15,000 RPMs to pellet the membranes. The membrane pellet is resuspended in membrane preparation buffer, snap frozen and stored at −80° C. for later use.
The human kisspeptin membrane binding assay utilizes the following components: radiolabel [^125I]-metastin (45-54) (human) (Perkinhmer), crude Flp-In T-Rex 293 kisspeptin membranes, and competing small molecule and peptide ligands. The assay is initiated by combining in assay buffer (50 mM TrisHCl, 5 mM MgCl2, 2 mM EGTA, 10 mM CaCl2, 0.1% BSA, pH 7.4) a dose response of competing ligand (final concentrations are typically 0-10,000 nM), 5-10 μg of Flp-In T-Rex 293 kisspeptin membranes, and 0.2 n M [^125I]-metastin (45-54) in a 96-well assay plate and allowed to incubate 90 minutes at room temperature. Assay contents are then filtered through unifilter CF/C: microplates (PerkinElmer) pre-soaked with 0.5% BSA and washed with 9×400 μL of cold wash buffer (10 mM HEPES, 500 mM NaCl, 0.1% Tween-20, pH7.4). Assay plates are read using a Microbeta^2 (PerkinElmer) and Ki values for compounds are determined using a GraphPad Prism 9.3 non-linear regression analysis.

`CC(=O)N[C@@H](Cc1ccccc1)C(=O)NNC(=O)N[C@@H](CC(C)C)C(=O)NC1(C(=O)N[C@@H](Cc2c[nH]c3ccccc23)C(N)=O)CCN(C(=O)CNCc2ccc(C)c(F)c2)CC1` [Compound 392] (Ac-F[azaGly]L[Api](Gly(N-(3-F-4-Me-benzyl)))W-NH2) and `Cc1ccc(CNCC(=O)N2CCC(NC(=O)[C@H](CC(C)C)NC(=O)NNC(=O)[C@H](Cc3ccccc3)NC(=O)[C@H]3CC[C@H](CNC(=O)c4ccc(CNC(=O)CN5CCN(CC(=O)O)CCN(CC(=O)O)CCN(CC(=O)O)CC5)cc4)CC3)(C(=O)N[C@@H](Cc3c[nH]c4ccccc34)C(N)=O)CC2)cc1F` [Compound 110] ({DOTA-4Amb-Trx}-F[azaGly]L[Api](Gly(N-(3-F-4-Me-benzyl)))W-NH2) cannot be ordered by Ki: < 10 nM for the first, < 10 nM for the second.

`CC(C)C[C@H](NC(=O)NNC(=O)[C@H](Cc1ccccc1)NC(=O)[C@@H](NC(=O)[C@H](CC(N)=O)NC(=O)[C@H](CCCCNC(=O)CN1CCN(CC(=O)O)CCN(CC(=O)O)CCN(CC(=O)O)CC1)NC(=O)[C@@H](Cc1ccc(O)cc1)NC(=O)CCOCCOCCNC(=O)CCc1ccc(I)cc1)[C@@H](C)O)C(=O)NC1(C(=O)N[C@@H](Cc2ccc(C#N)cc2)C(N)=O)CCN(C(=N)N)CC1` [Compound 325] ({Hydrocinnamoyl(4-I)-PEG2}-[dY]K(DOTA)NTF[azaGly]L[Api(1-amidino)][Phe(4-CN)]-NH2) and `CC(C)C[C@H](NC(=O)NNC(=O)[C@H](Cc1ccccc1)NC(=O)[C@@H](NC(=O)[C@H](CC(N)=O)NC(=O)[C@H](CCCCNC(=O)CN1CCN(CC(=O)O)CCN(CC(=O)O)CCN(CC(=O)O)CC1)NC(=O)[C@@H](Cc1ccc(O)cc1)NC(=O)CCc1ccc(I)cc1)[C@@H](C)O)C(=O)NC1(C(=O)N[C@@H](Cc2c[nH]c3ccccc23)C(N)=O)CCN(C(=N)N)CC1` [Compound 321] ({Hydrocinnamoyl(4-I)}-[dY]K(DOTA)NTF[azaGly]L[Api(1-amidino)]W-NH2) cannot be ordered by Ki: < 10 nM for the first, < 10 nM for the second.

`Cc1ccc(CNCC(=O)N2CCC(NC(=O)[C@H](CC(C)C)NC(=O)NNC(=O)[C@H](Cc3ccccc3)NC(=O)[C@@H](NC(=O)[C@H](CC(N)=O)NC(=O)c3ccc(CNC(=O)[C@H](Cc4ccc(O)cc4)NC(=O)CNC(=O)CN4CCN(CC(=O)O)CCN(CC(=O)O)CCN(CC(=O)O)CC4)cc3)[C@@H](C)O)(C(=O)N[C@@H](Cc3c[nH]c4ccccc34)C(N)=O)CC2)cc1F` [Compound 213] ({DOTA}-GY[4Amb]NTF[azaGly]L[Api](Gly(N-(3-F-4-Me-benzyl)))W-NH2) and `Cc1ccc(CNCC(=O)N2CCC(NC(=O)[C@H](CC(C)C)NC(=O)NNC(=O)[C@H](Cc3ccccc3)NC(=O)[C@@H](NC(=O)[C@H](CC(N)=O)NC(=O)c3ccc(CNC(=O)CN4CCN(CC(=O)O)CCN(CC(=O)O)CCN(CC(=O)O)CC4)cc3)[C@@H](C)O)(C(=O)N[C@@H](Cc3ccc(O)cc3)C(N)=O)CC2)cc1F` [Compound 205] ({DOTA-4Amb}-NTF[azaGly]L[Api](Gly(N-(3-F-4-Me-benzyl)))Y-NH2) cannot be ordered by Ki: < 10 nM for the first, < 10 nM for the second.

Compared with `CC(C)C[C@H](NC(=O)NNC(=O)[C@H](Cc1ccccc1)NC(=O)[C@@H](NC(=O)[C@H](CC(N)=O)NC(=O)[C@@H](Cc1ccc2ccccc2c1)NC(=O)[C@@H](Cc1ccc(O)cc1)NC(=O)CCCCCNC(=O)CN1CCN(CC(=O)O)CCN(CC(=O)O)CCN(CC(=O)O)CC1)[C@@H](C)O)C(=O)NC1(C(=O)N[C@H](Cc2c[nH]c3ccccc23)C(N)=O)CCN(C(=O)CNCCc2ccc(I)cc2)CC1` [Compound 373] ({DOTA-Ahx}-[dY][d2Nal]NTF[azaGly]L[Api](X15)[dW]-NH2), `Cc1ccc(CNCC(=O)N2CCC(NC(=O)[C@H](CC(C)C)NC(=O)NNC(=O)[C@H](Cc3ccccc3)NC(=O)[C@@H](NC(=O)[C@H](CC(N)=O)NC(=O)[C@H](Cc3ccc(-c4ccccc4)cc3)NC(=O)[C@@H](Cc3ccc(O)cc3)NC(=O)CCCCCNC(=O)CN3CCN(CC(=O)O)CCN(CC(=O)O)CCN(CC(=O)O)CC3)[C@@H](C)O)(C(=O)N[C@@H](Cc3c[nH]c4ccccc34)C(N)=O)CC2)cc1F` [Compound 363] ({DOTA-Ahx}-[dY][Bip]NTF[azaGly]L[Api](Gly(N-(3-F-4-Me-benzyl)))W-NH2) is lower in Ki: 10 to 100 nM for the first, < 10 nM for the second.

`CC(C)C[C@H](NC(=O)NNC(=O)[C@H](Cc1ccccc1)NC(=O)[C@@H](NC(=O)[C@H](CC(N)=O)NC(=O)[C@H](Cc1c2ccccc2cc2ccccc12)NC(=O)[C@@H](Cc1ccc(O)cc1)NC(=O)CN1CCN(CC(=O)O)CCN(CC(=O)O)CCN(CC(=O)O)CC1)[C@@H](C)O)C(=O)NC1(C(=O)N[C@@H](Cc2ccncc2)C(N)=O)CCN(C(=N)N)CC1` [Compound 221] ({DOTA}-[dY][Ala(9-anthryl)]NTF[azaGly]L[Api(1-amidino)][4Pal]-NH2) and `Cc1ccc(CNCC(=O)N2CCC(NC(=O)[C@H](CC(C)C)NC(=O)NNC(=O)[C@H](Cc3ccccc3)NC(=O)[C@@H](NC(=O)[C@H](CC(N)=O)NC(=O)[C@@H](Cc3ccc(O)cc3)NC(=O)CCCCCNC(=O)CN3CCN(CC(=O)O)CCN(CC(=O)O)CCN(CC(=O)O)CC3)[C@@H](C)O)(C(=O)N[C@@H](Cc3ccncc3)C(N)=O)CC2)cc1F` [Compound 291] ({DOTA-Ahx}-[dY]NTF[azaGly]L[Api](Gly(N-(3-F-4-Me-benzyl)))[4Pal]-NH2) cannot be ordered by Ki: < 10 nM for the first, < 10 nM for the second.

Going from `Cc1ccc(CNCC(=O)N2CCC(NC(=O)[C@H](CC(C)C)NC(=O)NNC(=O)[C@H](Cc3ccccc3)NC(=O)[C@@H](CC(N)=O)NC(=O)[C@@H](CCC(=O)O)NC(=O)[C@@H](CCC(=O)O)NC(=O)[C@@H](CC(N)=O)NC(=O)[C@@H](CC(N)=O)NC(=O)CCNC(=O)CN3CCN(CC(=O)O)CCN(CC(=O)O)CCN(CC(=O)O)CC3)(C(=O)N[C@@H](Cc3c[nH]c4ccccc34)C(N)=O)CC2)cc1F` [Compound 15] ({DOTA-βAla}-[dN][dN][dE][dE][dN]F[azaGly]L[Api](Gly(N-(3-F-4-Me-benzyl)))W-NH2) to `CNCC(=O)N1CCC(NC(=O)[C@H](CC(C)C)NC(=O)NNC(=O)[C@H](Cc2ccccc2)NC(=O)[C@@H](NC(=O)[C@H](CC(N)=O)NC(=O)[C@H](CCCCNC(=O)CN2CCN(CC(=O)O)CCN(CC(=O)O)CCN(CC(=O)O)CC2)NC(=O)[C@@H](Cc2ccc(O)cc2)NC(=O)CCOCCOCCNC(=O)CNCc2ccc(C)c(F)c2)[C@@H](C)O)(C(=O)N[C@@H](Cc2c[nH]c3ccccc23)C(N)=O)CC1` [Compound 384] (H-[Gly(N-3-F-4-Me-benzyl)][PEG2][dY]K(DOTA)NTF[azaGly]L[Api](Sar)W-NH2), the Ki falls from > 100 nM to < 10 nM. The second binds more tightly here.

`Cc1ccc(CNCC(=O)N2CCC(NC(=O)[C@H](CC(C)C)NC(=O)NNC(=O)[C@H](Cc3ccccc3)NC(=O)CCCCCNC(=O)[C@H](Cc3ccc4ccccc4c3)NC(=O)[C@@H](Cc3ccc(O)cc3)NC(=O)CN3CCN(CC(=O)O)CCN(CC(=O)O)CCN(CC(=O)O)CC3)(C(=O)N[C@@H](Cc3ccncc3)C(N)=O)CC2)cc1F` [Compound 286] ({DOTA}-[dY][2Nal][Ahx]F[azaGly]L[Api](Gly(N-(3-F-4-Me-benzyl)))[4Pal]-NH2) and `Cc1ccc(CNCC(=O)N2CCC(NC(=O)[C@H](CC(C)C)NC(=O)CNC(=O)[C@H](Cc3ccccc3)NC(=O)CCCCCNC(=O)CN3CCN(CC(=O)O)CCN(CC(=O)O)CCN(CC(=O)O)CC3)(C(=O)N[C@@H](Cc3ccc(O)cc3)C(N)=O)CC2)cc1F` [Compound 11] ({DOTA-Ahx}-FGL[Api](Gly(N-(3-F-4-Me-benzyl)))Y-NH2) cannot be ordered by Ki: < 10 nM for the first, < 10 nM for the second.

First: Cc1ccc(CNCC(=O)N2CCC(NC(=O)[C@H](CC(C)C)N3CC(NC(=O)[C@H](Cc4ccccc4)NC(=O)CCCCCNC(=O)CN4CCN(CC(=O)O)CCN(CC(=O)O)CCN(CC(=O)O)CC4)C3)(C(=O)N[C@@H](Cc3c[nH]c4ccccc34)C(N)=O)CC2)cc1F [Compound 139]
Second: Cc1ccc(CNCC(=O)N2CCC(NC(=O)c3cccc(CNC(=O)[C@H](Cc4ccccc4)NC(=O)CCCCCNC(=O)CN4CCN(CC(=O)O)CCN(CC(=O)O)CCN(CC(=O)O)CC4)n3)(C(=O)N[C@@H](Cc3c[nH]c4ccccc34)C(N)=O)CC2)cc1F [Compound 135]
The Ki of the first is lower: 10 to 100 nM for the first, > 100 nM for the second. The first binds more tightly here.

`Cc1ccc(CNCC(=O)N2CCC(NC(=O)[C@H](CC(C)C)NC(=O)NNC(=O)[C@H](Cc3ccccc3)NC(=O)CN3CCC(NC(=O)CN4CCN(CC(=O)O)CCN(CC(=O)O)CCN(CC(=O)O)CC4)CC3)(C(=O)N[C@@H](Cc3ccc(O)cc3)C(N)=O)CC2)cc1F` [Compound 247] ({DOTA}-[X1]F[azaGly]L[Api](Gly(N-(3-F-4-Me-benzyl)))Y-NH2) and `COc1ccc(CNCC(=O)N2CCC(NC(=O)[C@H](CC(C)C)NC(=O)NNC(=O)[C@H](Cc3ccccc3)NC(=O)[C@@H](NC(=O)[C@H](CC(N)=O)NC(=O)[C@H](CCC(=O)O)NC(=O)CN3CCN(CC(=O)O)CCN(CC(=O)O)CCN(CC(=O)O)CC3)[C@@H](C)O)(C(=O)N[C@@H](Cc3ccccc3)C(N)=O)CC2)cc1` [Compound 237] ({DOTA}-ENTF[azaGly]L[Api](Gly(Nα-4-MeO-benzyl))F-NH2) cannot be ordered by Ki: < 10 nM for the first, < 10 nM for the second.
